# Source: ChEMBL document CHEMBL3616368, “Induction of apoptosis by genipin inhibits cell proliferation in AGS human gastric cancer cells via Egr1/p21 signaling pathway” (Bioorg Med Chem Lett, 2015)
# The source made the active and inactive calls. The rule behind the calls is not given here.
# Columns and labels:
# AGS [1] = assay: Cytotoxicity against human AGS cells assessed as reduction in cell viability after 6 hrs by MTT assay; assay type: functional, cell-based
# HEK293 [2] = assay: Cytotoxicity against HEK293 cells assessed as reduction in cell viability at 12.5 to 100 uM after 6 hrs by MTT assay; assay type: cell-based; details: human, hek293, 6 h
# [3] = target: Early growth response protein 1 (Homo sapiens) (UniProt P18146); assay: Activation of Egr1 in human AGS cells assessed as increase in cleaved caspase-3 level at 100 uM by Western blot analysis in presence of caspase-3 inhibitor Ac-DEVD-CHO; assay type: cell-based
# Sequence of Early growth response protein 1 (Homo sapiens) (P18146 whole entry, looked up): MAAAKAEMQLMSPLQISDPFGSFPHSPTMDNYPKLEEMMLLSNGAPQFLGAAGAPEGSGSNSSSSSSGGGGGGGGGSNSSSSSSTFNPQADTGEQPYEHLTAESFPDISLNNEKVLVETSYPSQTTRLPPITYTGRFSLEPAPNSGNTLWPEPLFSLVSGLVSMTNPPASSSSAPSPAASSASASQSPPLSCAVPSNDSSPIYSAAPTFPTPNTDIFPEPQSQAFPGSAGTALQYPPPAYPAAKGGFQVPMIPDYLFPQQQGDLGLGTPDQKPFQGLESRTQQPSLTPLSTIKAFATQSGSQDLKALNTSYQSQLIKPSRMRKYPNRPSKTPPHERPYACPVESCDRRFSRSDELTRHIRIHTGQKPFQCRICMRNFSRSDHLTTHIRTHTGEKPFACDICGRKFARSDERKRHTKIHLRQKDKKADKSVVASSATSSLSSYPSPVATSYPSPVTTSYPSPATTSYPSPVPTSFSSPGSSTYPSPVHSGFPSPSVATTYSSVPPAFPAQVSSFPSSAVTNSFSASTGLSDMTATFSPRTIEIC
# [4] = target: Early growth response protein 1 (Homo sapiens) (UniProt P18146); assay: Activation of Egr1 in human AGS cells assessed as increase in cleaved caspase-3 level at 100 uM by Western blot analysis; assay type: cell-based
# AGS [5] = assay: Cytotoxicity against human AGS cells assessed as cell viability at 100 uM after 6 hrs by MTT assay in presence of caspase-3 inhibitor Ac-DEVD-CHO; assay type: functional, cell-based
# AGS [6] = assay: Cytotoxicity against human AGS cells assessed as cell viability at 100 uM after 6 hrs by MTT assay; assay type: functional, cell-based
# [7] = target: Early growth response protein 1 (Homo sapiens) (UniProt P18146); assay: Activation of Egr1 in human AGS cells assessed as increase in cleaved PARP level at 100 uM by Western blot analysis; assay type: cell-based
# [8] = target: Early growth response protein 1 (Homo sapiens) (UniProt P18146); assay: Activation of Egr1 in human AGS cells assessed as increase in cleaved caspase-9 level at 100 uM by Western blot analysis; assay type: cell-based
# [9] = target: Early growth response protein 1 (Homo sapiens) (UniProt P18146); assay: Activation of Egr1 in human AGS cells assessed as increase in cleaved caspase-7 level at 100 uM by Western blot analysis; assay type: cell-based
# HEK293 [10] = assay: Induction of apoptosis in HEK293 cells assessed as increase in cleaved PARP level at 100 uM by Western blot analysis; assay type: cell-based; details: human, hek293, 100 µM
# HEK293 [11] = assay: Induction of apoptosis in HEK293 cells assessed as increase in cleaved caspase-9 level at 100 uM by Western blot analysis; assay type: cell-based; details: human, hek293, 100 µM
# HEK293 [12] = assay: Induction of apoptosis in HEK293 cells assessed as increase in cleaved caspase-7 level at 100 uM by Western blot analysis; assay type: cell-based; details: human, hek293, 100 µM
# HEK293 [13] = assay: Induction of apoptosis in HEK293 cells assessed as increase in cleaved caspase-3 level at 100 uM by Western blot analysis; assay type: cell-based; details: human, hek293, 100 µM
# [14] = target: Early growth response protein 1 (Homo sapiens) (UniProt P18146); assay: Activation of Egr1 in human AGS cells assessed as increase in intracellular accumulation of reactive oxygen species at 100 uM by H2DCFDA probe-based flow cytometric analysis relative to control; assay type: cell-based
# [15] = target: Early growth response protein 1 (Homo sapiens) (UniProt P18146); assay: Activation of Egr1 in human AGS cells assessed as increase in loss of mitochondrial membrane potential after 6 hrs by Rh-123 staining-based flow cytometric analysis relative to control; assay type: cell-based
# AGS [16] = assay: Cell cycle arrest in human AGS cells assessed as accumulation at G0/G1 phase at 12.5 uM after 6 hrs by propidium iodide staining-based flow cytometric analysis (reference value: 52.82 +/- 2.87%); assay type: functional
# AGS [17] = assay: Cell cycle arrest in human AGS cells assessed as accumulation at G0/G1 phase at 25 uM after 6 hrs by propidium iodide staining-based flow cytometric analysis (reference value: 52.82 +/- 2.87%); assay type: functional
# AGS [18] = assay: Cell cycle arrest in human AGS cells assessed as accumulation at G0/G1 phase at 50 uM after 6 hrs by propidium iodide staining-based flow cytometric analysis (reference value: 52.82 +/- 2.87%); assay type: functional
# AGS [19] = assay: Cell cycle arrest in human AGS cells assessed as accumulation at G0/G1 phase at 100 uM after 6 hrs by propidium iodide staining-based flow cytometric analysis (reference value: 52.82 +/- 2.87%); assay type: functional
# AGS [20] = assay: Cell cycle arrest in human AGS cells assessed as accumulation at S phase at 12.5 uM after 6 hrs by propidium iodide staining-based flow cytometric analysis (reference value: 21.40 +/- 2.87%); assay type: functional
# AGS [21] = assay: Cell cycle arrest in human AGS cells assessed as accumulation at S phase at 25 uM after 6 hrs by propidium iodide staining-based flow cytometric analysis (reference value: 21.40 +/- 2.87%); assay type: functional
# AGS [22] = assay: Cell cycle arrest in human AGS cells assessed as accumulation at S phase at 50 uM after 6 hrs by propidium iodide staining-based flow cytometric analysis (reference value: 21.40 +/- 2.87%); assay type: functional
# AGS [23] = assay: Cell cycle arrest in human AGS cells assessed as accumulation at S phase at 100 uM after 6 hrs by propidium iodide staining-based flow cytometric analysis (reference value: 21.40 +/- 2.87%); assay type: functional
# AGS [24] = assay: Cell cycle arrest in human AGS cells assessed as accumulation at G2/M phase at 12.5 uM after 6 hrs by propidium iodide staining-based flow cytometric analysis (reference value: 23.05 +/- 3.15%); assay type: functional
# AGS [25] = assay: Cell cycle arrest in human AGS cells assessed as accumulation at G2/M phase at 25 uM after 6 hrs by propidium iodide staining-based flow cytometric analysis (reference value: 23.05 +/- 3.15%); assay type: functional
# AGS [26] = assay: Cell cycle arrest in human AGS cells assessed as accumulation at G2/M phase at 50 uM after 6 hrs by propidium iodide staining-based flow cytometric analysis (reference value: 23.05 +/- 3.15%); assay type: functional
# AGS [27] = assay: Cell cycle arrest in human AGS cells assessed as accumulation at G2/M phase at 100 uM after 6 hrs by propidium iodide staining-based flow cytometric analysis (reference value: 23.05 +/- 3.15%); assay type: functional
# AGS [28] = assay: Cell cycle arrest in human AGS cells assessed as accumulation at G2/M phase after 6 hrs by propidium iodide staining-based flow cytometric analysis; assay type: functional
# [29] = target: Early growth response protein 1 (Homo sapiens) (UniProt P18146); assay: Activation of Egr1 in human AGS cells assessed as downregulation of cyclin A expression at 12.5 to 100 uM by Western blot analysis; assay type: cell-based
# [30] = target: Early growth response protein 1 (Homo sapiens) (UniProt P18146); assay: Activation of Egr1 in human AGS cells assessed as downregulation of cyclin E expression at 12.5 to 100 uM by Western blot analysis; assay type: cell-based
# [31] = target: Early growth response protein 1 (Homo sapiens) (UniProt P18146); assay: Activation of Egr1 in human AGS cells assessed as upregulation of protein expression by Western blot analysis; assay type: cell-based
# [32] = target: Early growth response protein 1 (Homo sapiens) (UniProt P18146); assay: Activation of Egr1 in human AGS cells assessed as upregulation of p21 expression by Western blot analysis; assay type: cell-based
# AGS [33] = assay: Upregulation of Egr1 mRNA expression in human AGS cells by RT-qPCR analysis; assay type: functional, cell-based
# [34] = target: Early growth response protein 1 (Homo sapiens) (UniProt P18146); assay: Activation of Egr1 in human AGS cells assessed as upregulation of p21 mRNA expression by RT-qPCR analysis; assay type: cell-based
# [35] = target: Early growth response protein 1 (Homo sapiens) (UniProt P18146); assay: Activation of Egr1 in human AGS cells assessed as upregulation of protein expression after 6 hrs by DAPI staining-based fluorescence microscopic analysis; assay type: cell-based
# [36] = target: Early growth response protein 1 (Homo sapiens) (UniProt P18146); assay: Activation of Egr1 in human AGS cells assessed as induction of p21 promoter activity by dual luciferase reporter gene assay; assay type: cell-based
# [37] = target: Early growth response protein 1 (Homo sapiens) (UniProt P18146); assay: Activation of Egr1 in human AGS cells assessed as induction of p21 promoter activity by ChIP assay; assay type: cell-based
# [38] = target: Early growth response protein 1 (Homo sapiens) (UniProt P18146); assay: Activation of Egr1 in human AGS cells assessed as increase in interaction with p21 promoter by dual luciferase reporter gene assay; assay type: cell-based
# [39] = target: Early growth response protein 1 (Homo sapiens) (UniProt P18146); assay: Activation of Egr1 in human AGS cells assessed as increase in interaction with p21 promoter by ChIP assay; assay type: cell-based
# AGS [40] = assay: Upregulation of Egr1 mRNA expression in human AGS cells at 50 to 100 uM by RT-qPCR analysis in presence of si-Egr1 relative to control; assay type: functional, cell-based
# [41] = target: Early growth response protein 1 (Homo sapiens) (UniProt P18146); assay: Activation of Egr1 in human AGS cells assessed as upregulation of p21 mRNA expression at 50 to 100 uM by RT-qPCR analysis in presence of si-Egr1 relative to control; assay type: cell-based
# [42] = target: Early growth response protein 1 (Homo sapiens) (UniProt P18146); assay: Activation of Egr1 in human AGS cells assessed as upregulation of protein expression at 50 to 100 uM by Western blot analysis in presence of si-Egr1; assay type: cell-based
# [43] = target: Early growth response protein 1 (Homo sapiens) (UniProt P18146); assay: Activation of Egr1 in human AGS cells assessed as upregulation of p21 expression at 50 to 100 uM by Western blot analysis in presence of si-Egr1; assay type: cell-based
# [44] = target: Early growth response protein 1 (Homo sapiens) (UniProt P18146); assay: Activation of Egr1 in human AGS cells assessed as induction of p21 promoter activity at 12.5 to 100 uM by dual luciferase reporter gene assay in presence of si-Egr1; assay type: cell-based
# [45] = target: Early growth response protein 1 (Homo sapiens) (UniProt P18146); assay: Activation of Egr1 in human AGS cells assessed as increase in cleaved caspase-3 level at 50 to 100 uM by Western blot analysis in presence of si-Egr1; assay type: cell-based
# AGS [46] = assay: Cytotoxicity against human AGS cells assessed as cell viability at 100 uM after 6 hrs by MTT assay in presence of si-Egr1; assay type: functional, cell-based
# [47] = target: Early growth response protein 1 (Homo sapiens) (UniProt P18146); assay: Activation of Egr1 in human AGS cells transfected with p21-pcDNA3 assessed as increase in cleaved PARP level at 50 to 100 uM by Western blot analysis; assay type: cell-based
# AGS [48] = assay: Cytotoxicity against human AGS cells transfected with p21-pcDNA3 assessed as cell viability at 12.5 to 100 uM after 6 hrs by MTT assay relative to control; assay type: functional, cell-based
# [49] = target: Early growth response protein 1 (Homo sapiens) (UniProt P18146); assay: Activation of Egr1 in human AGS cells transfected with p21-pcDNA3 assessed as increase in intracellular accumulation of reactive oxygen species at 100 uM by H2DCFDA probe-based flow cytometric analysis relative to control; assay type: cell-based
compound,measurement,setting,value
COC(=O)C1=CO[C@@H](O)[C@@H]2C(CO)=CC[C@H]12 [GENIPIN],Activity,AGS [1],Dose-dependent effect
same,Activity,HEK293 [2],Non-toxic
same,Activity,[3],inactive
same,Activity,[4],Active
same,Activity,AGS [5],inactive
same,Activity,AGS [6],Active
same,Activity,[7],Active
same,Activity,[8],Active
same,Activity,[9],Active
same,Activity,HEK293 [10],Non-toxic
same,Activity,HEK293 [11],Non-toxic
same,Activity,HEK293 [12],Non-toxic
same,Activity,HEK293 [13],Non-toxic
same,Activity,[14],Active
same,Activity,[15],Dose-dependent effect
same,Activity,AGS [16],48.45%
same,Activity,AGS [17],42.33%
same,Activity,AGS [18],35.97%
same,Activity,AGS [19],36.88%
same,Activity,AGS [20],22.67%
same,Activity,AGS [21],24.66%
same,Activity,AGS [22],28.54%
same,Activity,AGS [23],27.48%
same,Activity,AGS [24],26.34%
same,Activity,AGS [25],30.53%
same,Activity,AGS [26],33.53%
same,Activity,AGS [27],33%
same,Activity,AGS [28],Dose-dependent effect
same,Activity,[29],Active
same,Activity,[30],Active
same,Activity,[31],Dose-dependent effect
same,Activity,[32],Dose-dependent effect
same,Activity,AGS [33],Dose-dependent effect
same,Activity,[34],Dose-dependent effect
same,Activity,[35],Dose-dependent effect
same,Activity,[36],Dose-dependent effect
same,Activity,[37],Dose-dependent effect
same,Activity,[38],Dose-dependent effect
same,Activity,[39],Dose-dependent effect
same,Activity,AGS [40],inactive
same,Activity,[41],inactive
same,Activity,[42],inactive
same,Activity,[43],inactive
same,Activity,[44],inactive
same,Activity,[45],inactive
same,Activity,AGS [46],inactive
same,Activity,[47],Active
same,Activity,AGS [48],Active
same,Activity,[49],Active
